Consider nine compounds from publication PMC3908770 (Journal of medicinal chemistry, 2013).

Data set [1] concerns the target T1, rat mGlu5 (Rattus norvegicus, UniProt P31424). The following applies: cited from earlier work.
Data set [2] relates to Schaffer collateral – CA1 (SC-CA1) synapse. The following applies: cited from earlier work.
Data set [3] deals with CA3 pyramidal neurons. The following applies: hippocampal preparations; prior studies; cited from earlier work.
For data set [4] the following is noted: cited from earlier work; for Seizure activity / liability in vivo: rodents.
The conditions of data set [5]: Cmax minimum active dose AHL versus Cmax minimum adverse effect dose; cited from earlier work.
The target of data set [6] is mGlu5 W784A (Rattus norvegicus, UniProt P31424, W784A). In words: Progressive fold-shift at mGlu5 point mutant, operational model of allosterism.
Sequence of mGlu5 W784A (P31424 21-1203 W784A): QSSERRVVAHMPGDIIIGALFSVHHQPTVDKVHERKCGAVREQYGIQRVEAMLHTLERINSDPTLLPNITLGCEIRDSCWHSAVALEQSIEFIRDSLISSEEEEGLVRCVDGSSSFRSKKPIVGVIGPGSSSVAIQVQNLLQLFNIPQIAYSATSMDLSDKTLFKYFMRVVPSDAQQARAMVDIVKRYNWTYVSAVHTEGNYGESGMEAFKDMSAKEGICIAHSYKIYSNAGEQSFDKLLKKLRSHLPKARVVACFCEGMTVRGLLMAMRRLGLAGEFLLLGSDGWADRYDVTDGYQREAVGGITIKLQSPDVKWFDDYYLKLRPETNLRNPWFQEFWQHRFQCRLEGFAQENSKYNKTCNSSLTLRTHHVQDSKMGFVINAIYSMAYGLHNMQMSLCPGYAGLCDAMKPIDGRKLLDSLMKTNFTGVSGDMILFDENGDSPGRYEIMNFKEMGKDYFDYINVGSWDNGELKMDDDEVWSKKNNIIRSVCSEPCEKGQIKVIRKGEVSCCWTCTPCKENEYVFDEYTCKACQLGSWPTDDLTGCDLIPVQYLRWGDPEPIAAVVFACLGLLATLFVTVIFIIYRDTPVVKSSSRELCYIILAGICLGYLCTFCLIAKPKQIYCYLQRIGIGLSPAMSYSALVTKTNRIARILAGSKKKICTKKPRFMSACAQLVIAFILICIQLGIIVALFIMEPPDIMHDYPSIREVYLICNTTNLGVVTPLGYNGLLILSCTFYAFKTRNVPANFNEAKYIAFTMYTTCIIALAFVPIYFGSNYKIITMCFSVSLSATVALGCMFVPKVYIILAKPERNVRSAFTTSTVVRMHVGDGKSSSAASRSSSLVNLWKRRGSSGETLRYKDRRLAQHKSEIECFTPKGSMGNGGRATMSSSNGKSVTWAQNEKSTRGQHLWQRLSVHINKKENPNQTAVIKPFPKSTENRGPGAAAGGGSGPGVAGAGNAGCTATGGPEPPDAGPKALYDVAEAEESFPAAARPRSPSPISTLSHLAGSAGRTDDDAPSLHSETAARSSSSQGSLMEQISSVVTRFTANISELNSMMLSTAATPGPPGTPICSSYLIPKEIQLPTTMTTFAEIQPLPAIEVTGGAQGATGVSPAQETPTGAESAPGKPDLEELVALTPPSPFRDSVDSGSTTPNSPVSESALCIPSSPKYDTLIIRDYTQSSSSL
The conditions of data set [7]: human; cited from earlier work.
The conditions of data set [8]: rat; cited from earlier work.
Data set [9] relates to panel of 68 GPCRs, ion channels and transporters. In words: Off-target panel screen. Format: binding. Conditions: 10 µM, 68 targets.
The subject of data set [10] is Schaffer collateral – CA1 (SC-CA1) synapse. In words: Long-term depression. Conditions: compound on its own, rat hippocampus.
Data set [11] is described as follows: Amphetamine induced hyperlocomotion, in vivo model of psychosis. The following applies: high dose, preliminary.
In data set [12] the target is T1, rat mGlu5. The following applies: operational model of allosterism.
Data set [13] addresses T1, rat mGlu5. Conditions: increasing concentrations.
Data set [14] has as its target mGlu5 S808A (Rattus norvegicus, UniProt P31424, S808A). In words: Progressive fold-shift at mGlu5 point mutant, operational model of allosterism.
The conditions of data set [15]: cited from earlier work.

Molecules are shown by their SMILES. “Also recorded” adds a separate entry of the source. Where two headings read alike, the source gives them in different places.

T1 sequence (P31424 21-1203): as the sequence (P31424 21-1203 W784A) above, with A764W counted along it
Sequence of mGlu5 S808A (P31424 21-1203 S808A): as the sequence (P31424 21-1203 W784A) above, with A764W, S788A counted along it

In the case of `C[C@@H](NC(=O)c1ccc(C#Cc2cccc(F)c2)cn1)C(C)(C)O` [Compound 19, (R)-5-((3-Fluorophenyl)ethynyl)-N-(3-hydroxy-3-methylbutan-2-yl)picolinamide], the “Allosteric agonism in mGlu5 cell line with low receptor density” value in [1] is recorded as “ago-PAM activity”. Also, in data set [2], the “Induction of LTD at SC-CA1 synapse” value is “induces LTD”. Also, the “Epileptiform activity in CA3 pyramidal neurons” value in data set [3] is “induction of epileptiform activity”. In data set [4], the “Seizure activity / liability in vivo” value is reported as “causes seizure activity”.
For `C[C@@H]1CC[C@H](c2noc(-c3ccc(F)cn3)n2)CN1C(=O)c1ccccc1` [Compound 5PAM523], the Therapeutic index in data set [5] is recorded as 2 fold.
In the case of `C[C@@H](NC(=O)c1ccc(C#Cc2ccccn2)cn1)C(C)(C)O` [Compound 31i, (R)-N-(3-Hydroxy-3-methylbutan-2-yl)-5-(pyridin-2-ylethynyl)picolinamide], in data set [6], the “Effect of W784A mutation” value was “gain in allosteric agonist activity”.
As for `O=C(N[C@H]1C[C@H](O)C1)c1ccc(C#Cc2cccc(F)c2)cn1` [Compound 22], in data set [1], the “Agonist activity in mGlu5 low-expressing cell line” value is reported as “significant ago-PAM activity”.
Turning to `O=C1c2ccc(F)cc2CCC2CC[C@@H](c3noc(-c4ccc(F)cn4)n3)CN12` (stereo partly shown) [Compound 5PAM916], the Therapeutic index in [5] was 18 fold.
On to `O=C(NC1CCC1)c1ccc(C#Cc2cccc(F)c2)cn1` [Compound 21], for which the “Agonist activity in mGlu5 low-expressing cell line” value in [1] was “demonstrates agonist activity”. For the same compound, in [7], the Plasma protein binding is on record as > 99 % bound and the fu plasma is recorded as < 1%. Also, in data set [8], the Plasma protein binding is > 99 % bound and the fu plasma is < 1%. Besides, the “Seizure liability in animal models” value in [4] is “possesses a seizure liability”.
Regarding `CC1(NC(=O)c2ccc(C#Cc3cccc(F)c3)cn2)COC1` [Compound 38t, 5-((3-Fluorophenyl)ethynyl)-N-(3-methyloxetan-3-yl)picolinamide], the Off target activity entry in [9] is recorded as “no significant off target activity”. The “Induction of LTD at SC-CA1 synapse” value in [10] was “no effect; also recorded: does not induce LTD”. Further, in [11], the Behavioral disturbances result is listed as “no overt behavioral disturbances”. Also, in [11] (data not shown), the “Reversal of amphetamine induced hyperlocomotion” value is recorded as “robust reversal”. In data set [12], the “Efficacy cooperativity factor (logβ) between glutamate and modulator” value stood at 0.34. Moreover, the “Predicted affinity (log value)” value in data set [12] (progressive fold-shift) is reported as −6.81. The “Inhibition of [^3H]methoxyPEPy binding” value in data set [13] was “complete inhibition”. Besides, the “Effect of S808A mutation” value in data set [14] was “NAM switch”.
Regarding `O=C(c1ccc(C#Cc2cccc(F)c2)nc1)N1CCC(O)CC1` [Compound 20], the “Allosteric agonism in mGlu5 cell line with low receptor density” value in data set [1] is on record as “devoid of agonism”. Moreover, the “Seizure activity / liability in vivo” value in data set [4] is listed as “did not display a seizure liability”.
Take `O=C(NC1CCC1)c1ccc(C#Cc2cccc(F)c2)nc1` [Compound 26]: the Plasma protein binding in data set [15] was 98.9%.
